Measured values published in patent US20260206761A1, “HETEROARYL-TRIAZOLE COMPOUNDS AS PESTICIDES” (Bayer Aktiengesellschaft, priority 2019, published 2026).

How the values were obtained:
Assay type in all cases: in vivo
[1] = tested on: Rhipicephalus microplus larvae (strain Parkhurst, resistant against synthetic pyrethroids); experiment: Rhipicephalus (Boophilus) microplus in-vitro contact test, larval cattle tick; conditions: after 48 hours, read-out: activity (efficacy: larvae dead or moribund); for pest or weed control at 100 g/ha: application rate 1 pg/cm^2 (=100 g/ha); for pest or weed control at 500 g/ha: application rate 5 pg/cm^2 (=500 g/ha)
Protocol: Rhipicephalus (Boophilus) microplus—In-Vitro Contact Tests Larval Cattle Tick (Strain Parkhurst. Resistant Against Synthetic Pyrethroids)
(§1) 9 mg compound is solved in 1 mL acetone and diluted with acetone to the desired concentration. 250 μL of the test solution is filled in 25 mL glass test tubes and homogeneously distributed on the inner walls by rotation and tilting on a shaking device (2 h at 30 rpm). With a compound concentration of 900 ppm, an inner surface of 44.7 cm^2 and a homogeneous distribution, a dose of 5 μg/cm^2 is achieved.
After the solvent has evaporated, each test tube is filled with 20-50 cattle tick larvae (Rhipicephalus microplus), closed with a perforated lid and incubated in a horizontal position at 85% relative humidity and 27° C. in an incubator. After 48 hours efficacy is determined. The larvae are patted on the ground of the tubes and negative geotactic behaviour is recorded.
An efficacy of 100% means all larvae are dead or moribund; 0% means no larvae are dead or moribund.

[2] = tested on: adult engorged female ticks (Rhipicephalus microplus); experiment: Rhipicephalus (Boophilus) microplus injection test; conditions: 168 h, application rate 4 pg/animal, egg deposition after 7 days, read-out: activity (efficacy: infertile eggs)
Protocol: Rhipicephalus (Boophilus) microplus—Injection Test
Solvent: dimethyl sulfoxide
To produce a suitable preparation of active compound, 10 mg of active compound are dissolved in 0.5 mL solvent, and the concentrate is diluted with solvent to the desired concentration.
Five adult engorged female ticks (Rhipicephalus microplus) are injected with 1 μL compound solution into the abdomen. The ticks are transferred into replica plates and incubated in a climate chamber.
After 7 days egg deposition of fertile eggs is monitored. Eggs where fertility is not visible are stored in a climate chamber till hatching after about 42 days. An efficacy of 100% means all eggs are infertile; 0% means all eggs are fertile.

[3] = tested on: adult brown dog ticks (Rhipicephalus sanguineus); experiment: Rhipicephalus sanguineus in-vitro contact test, adult brown dog ticks; conditions: after 48 hours, read-out: activity (efficacy: ticks dead or moribund); for pest or weed control at 100 g/ha: application rate 1 pg/cm^2 (=100 g/ha); for pest or weed control at 5 µg/cm2, 500 g/ha: application rate 5 μg/cm^2 (=500 g/ha)
Protocol: Rhipicephalus sanguineus—In-Vitro Contact Tests with Adult Brown Dog Ticks
as §1
After the solvent has evaporated, each test tube is filled with 5-10 adult brown dog ticks (Rhipicephalus sanguineus), closed with a perforated lid and incubated in a lying position at room temperature and relative humidity. After 48 hours efficacy is determined. The ticks are patted on the ground of the tubes and are incubated on a heating plate at 45-50° C. for at most 5 minutes. Immotile or uncoordinated moving ticks, which are not able to escape the heat by climbing upwards, are marked as dead or moribund.
An efficacy of 100% means all ticks are dead or moribund; 0% means no ticks are dead or moribund.

[4] = tested on: larvae of the banded cucumber beetle (Diabrotica balteata); experiment: Diabrotica balteata spray test; conditions: 168 h, application rate 100 g/ha (=32 pg/well), after 7 days, read-out: activity (efficacy: seedlings grown)
Protocol: Diabrotica balteata—spray test
(§2) Solvent: 78.0 parts by weight of acetone • • 1.5 parts by weight of dimethylformamide
(§3) Emulsifier: alkylarylpolyglycol ether
(§4) To produce a suitable preparation of active compound, 1 part by weight of active compound is mixed with the stated amount of solvent, and the concentrate is diluted with water, containing an emulsifier concentration of 1000 ppm, to the desired concentration. Further test concentrations are prepared by dilution with emulsifier containing water.
Soaked wheat seeds (Triticum aestivum) are placed in a multiple well plate filled with agar and some water and are incubated for 1 day to germinate (5 seeds per well). The germinated wheat seeds are sprayed with a test solution containing the desired concentration of the active ingredient. Afterwards each unit is infected with 10-20 larvae of the banded cucumber beetle (Diabrotica balteata).
After 7 days efficacy in % is determined. 100% means all the seedlings have grown up like in the untreated, uninfected control; 0% means none of the seedlings have grown.

[5] = tested on: green peach aphid (Myzus persicae); experiment: Myzus persicae oral test; conditions: 120 h, application rate 4 ppm, after 5 days
Protocol: Solvent: 100 parts by weight acetone
To produce a suitable preparation of active compound, 1 part by weight of active compound is mixed with the stated amount of solvent, and the concentrate is diluted with water to the desired concentration.
50 μL compound solution is filled in microtiter plates and 150 μL IPL41 insect medium (33%+15% sugar) is added to obtain a total volume of 200 μL per well. Afterwards the plates are sealed with parafilm through which a mixed population of the green peach aphid (Myzus persicae) can suck on the compound preparation.
After 5 days mortality in % is determined. 100% means all aphids have been killed and 0% means none of the aphids have been killed.

[6] = tested on: fall armyworm larvae (Spodoptera frugiperda); experiment: Spodoptera frugiperda spray test; conditions: 168 h, read-out: activity (mortality)
Protocol: Spodoptera frugiperda—Spray Test
Solvent: 78.0 parts by weight acetone • 1.5 parts by weight dimethylformamide
as §3
To produce a suitable preparation of active compound, 1 part by weight of active compound is mixed with the stated amount of solvents and is diluted with water, containing an emulsifier concentration of 1000 ppm, to the desired concentration. Further test concentrations are prepared by dilution with emulsifier containing water.
Maize (Zea mays) leaf sections are sprayed with a preparation of the active ingredient of the desired concentration. Once dry, the leaf sections are infested with fall armyworm larvae (Spodoptera frugiperda).
After 7 days mortality in % is determined. 100% means all caterpillars have been killed and 0% means none of the caterpillars have been killed.

[7] = tested on: larvae of the southern green stink bug (Nezara viridula); experiment: Nezara viridula spray test; conditions: 96 h, after 4 days; for mortality at 100 g/ha: application rate 100 g/ha; for mortality at 500 g/ha: application rate 500 g/ha
Protocol: Nezara viridula—Spray Test
as §2, §3, §4
Barley plants (Hordeum vulgare) infested with larvae of the southern green stink bug (Nezara viridula) are sprayed with a test solution containing the desired concentration of the active ingredient.
After 4 days mortality in % is determined. 100% means all the stink bugs have been killed; 0% means none of the stink bugs have been killed.

Row | Structure (SMILES) | pest or weed control at 100 g/ha [1] [%] | pest or weed control at 500 g/ha [1] [%] | pest or weed control at 4 pg [2] [%] | pest or weed control at 100 g/ha [3] [%] | pest or weed control at 5 µg/cm2, 500 g/ha [3] [%] | pest or weed control at 100 g/ha [4] [%] | mortality at 4 ppm [5] [%] | mortality at 100 g/ha [6] [%] | mortality at 100 g/ha [7] [%] | mortality at 500 g/ha [7] [%]
1 | COc1nc([C@H](C)NC(=O)c2cc(OC(F)(F)F)cc(C3CC3)c2)n(-c2ccc(C#N)cn2)n1 [I-44] | 100 | 100 | 100 | 100 | 100 | 100 | 90 | 100 |  | 
2 | COc1nc([C@H](C)NC(=O)c2cc(Cl)cc(S(=O)(=O)C(F)F)c2)n(-c2ccc(Cl)cn2)n1 [I-53] |  |  |  |  |  | 100 | 100 | 100 |  | 
3 | COc1nc([C@H](C)NC(=O)c2cc(Cl)cc(S(=O)(=O)C(F)(F)F)c2)n(-c2ccc(C#N)cn2)n1 [I-54] | 100 | 100 |  |  |  |  | 100 | 100 |  | 
4 | COc1nc([C@H](C)NC(=O)c2cc(Cl)cc(S(=O)(=O)C(F)F)c2)n(-c2ccc(C#N)cn2)n1 [I-55] | 100 | 100 |  |  |  | 100 | 100 | 100 |  | 
5 | C[C@H](NC(=O)c1cc(Cl)cc(S(C)(=O)=O)c1)c1nc(C2CC2)nn1-c1ccc(Cl)cn1 [I-58] | 100 | 100 |  | 100 | 80 | 100 | 100 | 100 | 100 | 100
6 | C[C@H](NC(=O)c1cc(Cl)cc(S(=O)(=O)C2CC2)c1)c1nc(C2CC2)nn1-c1ccc(Cl)cn1 [I-59] | 100 | 100 |  |  |  | 80 | 100 | 100 | 100 | 100
7 | C[C@H](NC(=O)c1cc(F)cc(S(C)(=O)=O)c1)c1nc(C2CC2)nn1-c1ccc(Cl)cn1 [I-60] | 100 | 100 |  | 100 | 100 | 100 | 100 | 100 | 100 | 100
8 | COc1nc([C@H](C)NC(=O)c2cc(Cl)cc(S(=O)(=O)C3CC3)c2)n(-c2ccc(Cl)cn2)n1 [I-62] |  |  |  |  |  | 100 | 100 | 100 |  | 
9 | C[C@H](NC(=O)c1cc(OC(F)F)cc(S(C)(=O)=O)c1)c1nc(C2CC2)nn1-c1ccc(C#N)cn1 [I-65] |  |  |  |  |  | 100 | 100 | 100 | 100 | 100
10 | C[C@H](NC(=O)c1cc(C(F)(F)F)cc(S(C)(=O)=O)c1)c1nc(C2CC2)nn1-c1ccc(Cl)cn1 [I-68] |  |  |  |  |  | 100 | 100 | 100 |  | 
11 | C[C@H](NC(=O)c1cc(OC(F)(F)F)cc(S(C)(=O)=O)c1)c1nc(C2CC2)nn1-c1ccc(Cl)cn1 [I-69] |  |  |  |  |  | 100 | 100 | 100 | 90 | 
12 | COc1nc([C@H](C)NC(=O)c2cc(Br)cc(C3(F)CC3)c2)n(-c2ccc(C#N)cn2)n1 [I-71] | 100 | 100 |  |  |  | 100 | 100 | 100 |  | 
13 | COc1nc([C@H](C)NC(=O)c2cc(OC(F)F)cc(C3CC3)c2)n(-c2ccc(C#N)cn2)n1 [I-74] | 100 | 100 |  |  |  | 80 | 100 | 100 |  | 
14 | COc1nc([C@H](C)NC(=O)c2cc(OC(F)(F)F)cc(S(C)(=O)=O)c2)n(-c2ccc(C#N)cn2)n1 [I-75] |  |  |  |  |  | 80 | 100 | 100 | 100 | 90
15 | COc1nc([C@H](C)NC(=O)c2cc(OC(F)F)cc(C3CC3)c2)n(-c2ncc(Cl)cn2)n1 [I-76] | 100 | 100 |  |  |  | 100 | 100 | 100 |  | 
16 | C[C@H](NC(=O)c1cc(OC(F)F)cc(C2CC2)c1)c1ncnn1-c1ccc(C#N)cn1 [II-62] | 100 | 100 | 100 | 100 | 100 | 100 | 100 | 100 |  | 
